Measured values as given in patent US10041922B2, “Biochemistry based ocular toxicity assay” (priority 2015, dated 2018).
Read-outs that look alike come from different tables or passages of the source.

Assays:
[1] = tested on: water-soluble protein/glycoprotein test matrix; assay: Water soluble assay (Alpha): optical response (OD400) of the macromolecule active agent, irritation score; conditions: TP/FN/TN based on comparison with the in vivo test results
Procedure: (§1) The macromolecule based test matrix behaves as an active agent in the assay and is capable of undergoing a measurable change when exposed to an ocular irritant. The measurable change may be a change in appearance, which can be measured by spectrophotometry. One or more standards of known toxicity are added to at least a second aliquot of the water-soluble matrix to form control solutions, to generate a calibration curve. The measurable change induced by the test substance can be compared to the measurable change induced by the standards to make an ocular toxicity prediction. For instance, test substances that induce an equal or greater reaction than a known irritant may be classified as ocular irritants. In some embodiments, the pH of the control solution may be adjusted to match the pH of the test solution, thereby controlling for pH effects and increasing accuracy. In some embodiments, a test substance which is at least partially water insoluble is added to an aliquot of a reagent comprised of one or more hydrophobic organic polymers capable of undergoing a measurable change in response to water insoluble ocular irritants. The measurable change may be a change in appearance, which can be measured by spectrophotometry. One or more standards of known toxicity are added to at least a second aliquot of the reagent to generate a calibration curve. The measurable change induced by the test substance can be compared to the measurable change induced by the standards to make an ocular toxicity prediction in the manner described above. Water-soluble and water-insoluble assays can be performed in parallel, or multiplexed, to rapidly and efficiently predict the ocular toxicity of a wide range of compounds.
(§2) In some embodiments related to the water-soluble sub-assay, the test matrix is a water-soluble active agent comprising one or more macromolecules in aqueous solution. […] In some embodiments, the water-soluble active agent comprises at least one of isoleucine, glutamine, leucine, lysine, tyrosine, valine, proline, methione, fumerase, serine, urocanate, triacyl glycerol, globulin, gammaglobulin, mucopolysaccharide, albumin, carbohydrates, lipids, saponins, conalbumin, ovalbumin, ovomucoid, mucin, egg white fractions, plant extract, cell extract, milk fractions, red blood cell extract, muscle extract, gelatin fractions, heme, aspartate, lignocerate, stearate, linolenate, benzoate, carnitine, palmate, coenzyme A, and urea. The molecules and macromolecules can be derived as crude cell or tissue extracts, or obtained individually or in part and reconstituted.
(§3) A third pretest is performed to measure the buffering power of the unknown test substance. […] Next, 125 μL or mg of test substance is added to the test tube. The pH of the mixture is recorded. The final pH is compared to the starting pH and the absolute value of the change in pH is applied as an exponent to base 10 to generate a buffering score. These pretest results are used to select specific procedures to further analyze the test substance. Compounds with a buffering score between 5 and 2 are within the MA α domain. Compounds outside of the MA α domain with buffering scores less than 100 are within the HMA α domain. Substances with a buffering score of at least 100 are within the H-test domain.
(§4) The MA α procedure is used to test unknowns that have a small buffering capacity. The MA α procedure predicts a substance's capacity for indirect denaturation of molecules across a membrane via osmotic effects, such as osmotic effects across the corneal epithelium and stroma which can damage the cornea. The MA α assay further analyzes Potential to damage tissue via excessive oxidation and reactivity, which can occur at the epithelium, stroma, conjunctiva and iris.

eye = conditions: cited from earlier work
[2] = Water insoluble assay (Delta): optical response (OD700) of the hydrophobic polymer Δ reagent, irritation score; conditions: TP/FN/TN based on comparison with the in vivo test results
Procedure: Triplicate Δ Test and Δ Control cells are labeled as follows: Test Cell 40 μL; Control Cell 40 μL; Test Cell Standard A; Test Cell Standard B. The cells are placed in a rack. 40 μL aliquots of test sample are added to the three Δ positive cells. 40 μL of Standard A+ and 40 μL of Standard B+ are added to the respective triplicate cells. 40 μL of test substance is aliquoted to the True Negative cell. All test and standard cells (A+, B+, and control cells) are filled with 2 mL of Δ reagent. […] 2 mL of Δ reagent is added to a naïve Δ test cell to blank a spectrophotometer. The OD700 value is measured for all test and standard cells. Where the substance is colored or opaque, 2 mL of Δ reagent are added to a naïve control Δ cell, and the OD700 value is measured for all control cells.
Test Cell values are recorded. Control cell values are recorded. Where samples are colored or opaque Net OD700 values are obtained by subtracting the average of the control cell OD700 value from the average of the test cell OD700 value. The average of positive controls A+ and B+ are calculated.
For each unknown, an irritancy classification is ascertained by using the closest positive cell value. The highest measured value is used. The standard with the closest OD value is identified as the Closest Standard Value. The Measured Value is divided by the mean of the three Closest Standard Values. A multiplier is applied to the quotient corresponding to the designation of the Closest Standard Value. If the Closest Standard Value is A+, the multiplier is 8. […] The resulting value is the irritation score for the sample. The highest score is used to predict the irritancy of the sample.

[3] = tested on: water-soluble protein/glycoprotein test matrix
Procedure: as §1, §2, §3, §4

[4] = category of irritant from published in vivo irritancy tests (GHS)

BrCCCCCCBr [1,6-Dibromohexane]
Water soluble assay (Alpha), parenthetical call versus in vivo [1]: (TN) | in vivo (eye; [4]): Not Classified | water insoluble assay (Delta), parenthetical call versus in vivo [2]: (TN)

ClCCCCBr [1-Bromo-4-chlorobutane]
Water soluble assay (Alpha), parenthetical call versus in vivo [1]: (TN) | in vivo (eye; [4]): Not Classified | water insoluble assay (Delta), parenthetical call versus in vivo [2]: TN)

CCCCCCO [1-Hexanol]
Water soluble assay (Alpha), parenthetical call versus in vivo [1]: (TP) | in vivo (eye; [4]): Category 2A | water insoluble assay (Delta), parenthetical call versus in vivo [2]: (FN)

CCC(C)(C)C(=O)O [2,2-Dimethyl Butanoic Acid]
Water soluble assay (Alpha), parenthetical call versus in vivo [1]: (TP) | water insoluble assay (Delta), parenthetical call versus in vivo [2]: (FN)

CCCCC(CC)COC(=O)c1ccc(N(C)C)cc1 (stereo not shown) [2-Ethylhexyl 4-(dimethylamino)benzoate]
Water soluble assay (Alpha), parenthetical call versus in vivo [1]: (TN) | in vivo (eye; [4]): Not Classified | water insoluble assay (Delta), parenthetical call versus in vivo [2]: (TN)

CC(C)O [2-Propanol]
Water soluble assay (Alpha), parenthetical call versus in vivo [1]: (TP) | in vivo (eye; [4]): Category 2A | water insoluble assay (Delta), parenthetical call versus in vivo [2]: (FN)

O=C=Nc1ccc(Cl)c(Cl)c1 [3,4-Dichlorophenyl isocyanate]
Water soluble assay (Alpha), parenthetical call versus in vivo [1]: (TP) | water insoluble assay (Delta), parenthetical call versus in vivo [2]: (FN)

CC(C)(C)CC(C)(C)c1ccc(O)cc1 [4-(1,1,3,3-Tetramethylbutyl)phenol]
Water soluble assay (Alpha), parenthetical call versus in vivo [1]: (TP) | water insoluble assay (Delta), parenthetical call versus in vivo [2]: (FN)

OCc1ccccc1 [Benzyl Alcohol]
Water soluble assay (Alpha), parenthetical call versus in vivo [1]: (TP) | water insoluble assay (Delta), parenthetical call versus in vivo [2]: (TP)

CCN(CC)CCO [Diethylethanolamine]
in vivo (eye; rabbit, in vivo): Category 1 | Water soluble assay (Alpha) [3]: 53.54 | Water soluble assay (Alpha), parenthetical call versus in vivo [3]: (TP)

CCCCCCCCCCCC [Dodecane]
Water soluble assay (Alpha), parenthetical call versus in vivo [1]: (TN) | in vivo (eye; [4]): Not Classified | water insoluble assay (Delta), parenthetical call versus in vivo [2]: (TN)

NCCO [Ethanolamine]
Water soluble assay (Alpha), parenthetical call versus in vivo [1]: (TP) | in vivo (eye; [4]): Category 2B | water insoluble assay (Delta), parenthetical call versus in vivo [2]: (FN)

CCOC(=O)C(C)C(C)=O (stereo not shown) [Ethyl 2-methyl]
in vivo (eye; rabbit, in vivo): Category 2B | Water soluble assay (Alpha) [3]: 10.9 | Water soluble assay (Alpha), parenthetical call versus in vivo [3]: (FN)

CCOC(=O)C(C)(C)O [Ethyl a-hydroxyisobutyrate]
in vivo (eye; rabbit, in vivo): Category 1 | Water soluble assay (Alpha) [3]: >60 | Water soluble assay (Alpha), parenthetical call versus in vivo [3]: (TP)

C=CC(=O)OCCO [Hydroxyethyl acrylate]
Water soluble assay (Alpha), parenthetical call versus in vivo [1]: (TP)

CO[Si](CCCNCCC[Si](OC)(OC)OC)(OC)OC [Organofunctional Silane]
in vivo (eye; rabbit, in vivo): Category 1 | Water soluble assay (Alpha) [3]: 25.53 | Water soluble assay (Alpha), parenthetical call versus in vivo [3]: (TP)

c1ccncc1 [Pyridine]
in vivo (eye; rabbit, in vivo): Category 1

O=C(Cl)C(Cl)(Cl)Cl [Trichloroacetyl chloride]
Water soluble assay (Alpha), parenthetical call versus in vivo [1]: (TP) | water insoluble assay (Delta), parenthetical call versus in vivo [2]: (TP)

CCCCCCCCN [n-Octylamine]
Water soluble assay (Alpha), parenthetical call versus in vivo [1]: (TP) | water insoluble assay (Delta), parenthetical call versus in vivo [2]: (TP)

CN(C)CCCCCCN(C)C [tetramethyl-1,6 hexanediame]
Water soluble assay (Alpha), parenthetical call versus in vivo [1]: (TP) | water insoluble assay (Delta), parenthetical call versus in vivo [2]: (TP)
